The text below walks through data of patent US4102887A, “Intermediates used in the preparation of phenyl-pyridylamine derivatives” (priority 1974, dated 1978).

The structures appear in SMILES notation. Structures can show the parent of a compound that is named as a salt. Where two headings read alike, the source gives them in different places.

The conditions of series [1]: literature / prior patents; cited from earlier work.
Series [2] has as its system neuronal uptake of noradrenaline. As to the kind of experiment: Inhibition of uptake of 3H-NA in vitro in slices of mouse midbrain. It counts as cell-based. To be noted: in words; in vitro or in vivo not stated. As to the method: (§1) It is not possible by experimental means to induce depressions in laboratory animals. In order to evaluate a possible anti-depressive effect of new substances biochemicalpharmacological test methods must be resorted to. One such method, which seems to give a good indication of the potential anti-depressive effects of the test substances, is described in Europ.
(§2) The test substances were administered intraperitoneally half an hour before the animals were killed. […] The incubation time was 5 minutes with 5 minutes of preincubation before the labelled amines were added. The slices were dissolved in Soluene® and the amounts of radio-active amines taken up were determined by liquid scintillation. […] Active uptake is defined as that part of the radioactive uptake which is inhibited by a high concentration of cocaine.
(§3) In the in vitro method, slices of mouse midbrain were preincubated for 5 minutes with a solution of the compound to be tested and then incubated as described above.

For series [3] the test system is unchanged. As to the kind of experiment: Inhibition of uptake of 3H-NA in brain slices after in vivo (i.p.) administration. More on the design: species or system mouse. As to the method:
as §1, §2

The subject of series [4] is neuronal uptake of 5-hydroxytryptamine. Nature of the series: Inhibition of uptake of 14C-5-HT in vitro in slices of mouse midbrain. It counts as cell-based. The procedure:
as §1, §2, §3

The test system is the same in series [5]. Nature of the series: Inhibition of uptake of 14C-5-HT in brain slices after in vivo (i.p.) administration. More on the design: species or system mouse. Conditions: in words. The procedure: as §1, §2
The conditions of series [6]: cited from earlier work.

As for `CN(C)CC=C(c1ccccc1)c1ccccc1`, in series [1], the antidepressive effect result is listed as “have an antidepressive effect”.

Consider `CNC/C=C(\c1ccc(Br)cc1)c1cccnc1` [E-form of the compound of the invention, (E)-3-(4-bromophenyl)-3-(3-pyridyl)-N-methyl-allylamine], for which the “preferential inhibition of noradrenaline uptake” value in series [2] is given as “primarily inhibits the uptake of noradrenaline”.

As to `CNC/C=C(/c1ccc(Br)cc1)c1cccnc1` [H Z hydrochloride, (Z)-3-(4-bromophenyl)-3-(3-pyridyl)-N-methyl-allylamine], the inhibition at 101 µmol/kg in series [3] (Mus musculus, ip, at the dose 101 μmole/kg i.p.) stood at 39%. Besides, the “Uptake of 3H-NA in vivo ED50” value in series [3] (i.p., half an hour before killing, mouse midbrain slices, dose for 50 percent decrease of active uptake, 30 min) is > 101 µmol/kg.

Consider `CNC/C=C(/c1ccc(Br)cc1)c1cccnc1` [H Z oxalate, (Z)-3-(4-bromophenyl)-3-(3-pyridyl)-N-methyl-allylamine], for which the ED50 in series [3] (Mus musculus, ip, 0.5 h, i.p., half an hour before killing, mouse midbrain slices, dose for 50 percent decrease of active uptake) came to 102 µmol/kg.

In series [4] (Mus musculus, mouse midbrain slices, 5 min preincubation, 5 min incubation), `CNCC=C(c1ccc(Br)cc1)c1cccnc1` [H mixture oxalate, N-methyl-3-(4-bromophenyl)-3-(3-pyridyl)allylamine oxalate] registered an EC50 of 500 nM.

Take `CNC/C=C(/c1ccc(Br)cc1)c1cccnc1` [Z-form of the compound of the invention, (Z)-3-(4-bromophenyl)-3-(3-pyridyl)-N-methyl-allylamine]: in series [4] (in words, tested as the hydrochloride), the “inhibition of the uptake of 5-HT in vitro, compared with prior art compounds” value is given as “more potent inhibitor of the uptake of 5-HT in vitro than any of the prior art compounds”. Moreover, the “inhibition of the uptake of 5-HT in vivo, compared with prior art compounds” value in series [5] is recorded as “stronger inhibition of the uptake of 5-HT in vivo than do any of the prior art compounds tested”.

In the case of `CN(C)CCC=C1c2ccccc2CCc2ccccc21` [amitriptyline], the side effects entry in series [6] (in vivo) was “orthostatism, anticholinergic effects and above all, an arrhythmogenic i.e. heart arrhythmia developing effect”. The “start of the antidepressive effect” value in series [6] (therapeutic use) is “does not start until some weeks after treatment”.

As for `CNCCCN1c2ccccc2CCc2ccccc21` [desipramine], in series [6] (in vivo), the side effects result was “orthostatism, anticholinergic effects and above all, an arrhythmogenic i.e. heart arrhythmia developing effect”. In series [6] (therapeutic use), the “start of the antidepressive effect” value is given as “does not start until some weeks after treatment”.

As to `CN(C)CCCN1c2ccccc2CCc2ccccc21` [imipramine], the side effects entry in series [6] (in vivo) was “orthostatism, anticholinergic effects and above all, an arrhythmogenic i.e. heart arrhythmia developing effect”. Further, in series [6] (therapeutic use), the “start of the antidepressive effect” value was “does not start until some weeks after treatment”.

Take `CNCCC=C1c2ccccc2CCc2ccccc21` [nortriptyline]: the side effects result in series [6] (therapeutic use, arrhythmogenic in large doses to old patients) is “orthostatism, anticholinergic effects and above all, an arrhythmogenic i.e. heart arrhythmia developing effect”. Moreover, the “start of the antidepressive effect” value in series [6] (therapeutic use) was “does not start until some weeks after treatment”.

A word on the inhibition: it is the change of the read-out against control, counted positive when it falls. Higher therefore signals strong suppression. The term ED50 denotes the midpoint of the dose-response relation. Read a low ED50 as greater potency. Broadly, the EC50 is the concentration giving half of the maximal effect.
